Legend:
[1] = Growth inhibition of mouse Hepa-1c1c7 cells; format: cell-based
[2] = Chemoprevention index, ratio of IC50 for mouse Hepa-1c1c7 cells to CD for NADPH:quinone reductase specific activity in mouse Hepa-1c1c7 cells; format: functional

Row | SMILES | IC50 [1] [µM] | Ratio [2]
1 | C[C@H]1CC([C@](C)(O)[C@@]2(O)CC[C@H]3[C@@H]4C[C@H]5O[C@]56[C@@H](O)C=CC(=O)[C@]6(C)[C@H]4CC[C@@]32C)OC(=O)[C@@H]1C (stereo partly specified) [PHILADELPHICALACTONE A] | 0.47 | 11.8
2 | C[C@H]1C(=O)OC(C2O[C@]34C[C@H]5[C@@H](C[C@H]6O[C@H]7CC(=O)[C@@]5(C)[C@@]6(O)C7=O)[C@@H]5C[C@@H](O3)[C@@H]([C@@H]54)[C@@]2(C)O)[C@@H]1C (stereo partly specified) [SUBTRIFLORALACTONE K] | 4.8 | 13.3
3 | C[S+]([O-])CCCCN=C=S (stereo unspecified) [SULFORAPHANE] | 11.7 | 23.9

From ChEMBL document CHEMBL1146572, “Isolation and characterization of miscellaneous secondary metabolites of Deprea subtriflora” (J Nat Prod, 2003)
